Laboratory results from patent US7598244B2, “[1,2,4]triazolo[1,5,a]pyrimidin-2-ylurea derivative and use thereof” (Nippon Kayaku Kabushiki Kaisha, priority 2003, dated 2009).
Where two headings read alike, the source gives them in different places.

Columns and labels:
mouse splenic cells = assay: Inhibitory action on blastogenesis of mouse splenic cells ([3H]-thymidine incorporation); format: cell-based; settings: Mus musculus, Lymphocyte, 72 hours
Protocol: Inhibitory Action on Blastogenesis of Mouse Splenic Cells
The spleen was excised from each of BALB/c mice (Charles River Japan; female; 10-week-old), and it was allowed to pass through a mesh to obtain a single cell suspension. This single cell suspension was prepared to be 1.0×10^6 cells/ml. Thereafter, 200 μl of the suspension was fractionated into each well of a 96-well plate. Thereafter, as blastogenic stimulation, 5 μg/ml concanavalin A (Pharmacia) or 25 μg/ml Escherichia coli-derived lipopolysaccharide (DIFCO) was added to the well, and then, a solution containing a test compound with each different concentration was further added thereto at an amount of 20 μl/well. The obtained mixture was cultured at 37° C. for 72 hours in an incubator containing 5% carbon dioxide. Thereafter, a 1 μCi/10 μl/well [^3H]-thymidine solution was added thereto 64 hours after initiation of the culture. After completion of the culture (72 hours later), the cells were captured on a filter using a cell harvester, and they were then dried. Thereafter, scintillator was added thereto, and the radioactivity of [^3H]-thymidine incorporated into the cells was then measured using a liquid scintillation counter. The inhibition rate of the DNA synthesis was calculated using the aforementioned formula (3). Thereafter, the concentration of a test compound necessary for inhibition of 50% (IC50 value) was obtained.

[1] = system: MHC class I molecules of T1 cells (human lymphoma cell line 174×CEM.); assay: Effect on expression of MHC class I from T1 cells (flow cytometry, MFI); format: cell-based; settings: 3 days culture
Outline: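 EC20 is the compound level that lowers MHC class I MFI by 20% relative to compound-free cultures. Read-out was flow cytometry after FITC W6/32 staining.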

BALB/c mice = assay: Effect on mouse delayed-type hypersensitivity reaction (DTH reaction), swelling of the sole; format: in vivo; settings: Oral
Protocol: Effect on Mouse Delayed-Type Hypersensitivity Reaction (DTH Reaction)
1.0×10^5 sheep erythrocytes (Nippon Seibutsu Zairyo Center, Co., Ltd.) were administered to each of BALB/c mice (Charles River Japan, Inc.; female; 8-week-old) by intravenous injection for sensitization. From the day of administration of the sheep erythrocytes, a test compound was administered to the mouse. As a control, a 0.5% carboxymethyl cellulose (CMC)-Na solution and a normal saline solution used as solvents were administered to the same type of mouse via oral administration or intraperitoneal administration. Five days after the antigen sensitization, 1.0×10^8 sheep erythrocytes were subcutaneously injected into the sole of the mouse. 24 hours later, the thickness of the sole was measured. The value obtained by subtracting the mean value of the thicknesses of the soles of mice, to which a normal saline solution had been administered instead of the sheep erythrocytes, from the above measurement value, was defined as swelling of the sole generated as a result of the DTH reaction. The inhibition rate of the swelling of the sole caused by the DTH reaction was calculated using the following formula (5). The amount of the test compound necessary for inhibition of 50% (ED50 value) was obtained as the activity of the test compound to inhibit the DTH reaction. It is to be noted that cyclosporin A was used as a positive control.
[formula] • Eexp: Swelling of sole of mouse to which test compound was administered • Cexp: Swelling of sole of mouse to which solvent was administered

CD40 = assay: Expression of antigen-presenting and costimulatory molecules of human peripheral blood-derived dendritic cells: CD40; format: cell-based
Protocol: (§1) Action on Expression of Antigen-Presenting Molecules and Costimulatory Molecules of Human Peripheral Blood-Derived Dendritic Cells
(§2) The dendritic cells obtained by the same method as in Test Example 2 were suspended in RPMI 1640 comprising 10% FCS containing 500 U/ml GM-CSF, 50 ng/ml IL-4, and 100 U/ml human recombinant tumor necrosis factor (2.5×10^6 cells/ml). Thereafter, the suspension was inoculated into a 6-well plate at an amount of 2.0 ml/well, and the test compound was then added thereto. The mixture was cultured at 37° C. for 3 days in an incubator containing 5% carbon dioxide. Thereafter, the suspended cells were recovered. The cells were then stained with fluoroisothiocyanate-labeled mouse monoclonal antibodies reacting with MHC class I (Bechman Coulter), CD1a (Immunotech), CD40 (Pharmingen), CD80 (Pharmingen), and CD83 (Immunotech). Thereafter, mean fluorescence intensity and the ratio of positive cells were measured by flow cytometry. The expression level was calculated by the formula “the mean fluorescence intensity x the ratio of positive cells,” and the inhibition rate of the surface antigen expression level of dendritic cells was then obtained by the following formula (8).
(§3) [formula] • Eexp: Expression level of surface antigens of dendritic cells cultured in the presence of test compound • Cexp: Expression level of surface antigens of dendritic cells cultured in the absence of test compound

CD83 = assay: Expression of antigen-presenting and costimulatory molecules of human peripheral blood-derived dendritic cells: CD83; format: cell-based
Protocol: as §1, §2, §3

CC(C)NC(=O)Nc1nc2nccc(-c3cccs3)n2n1 [Example 029, 1-isopropyl-3-(7-thiophen-2-yl[1,2,4]triazolo[1,5-a]pyrimidin-2-yl)urea]
IC50 (mouse splenic cells; 5 μg/ml concanavalin A, read-out: Lymphocyte blastogenesis IC50 (μM), ConA stimulation): 0.71 µM | IC50 (mouse splenic cells; 25 μg/ml Escherichia coli-derived lipopolysaccharide, read-out: Lymphocyte blastogenesis IC50 (μM), LPS stimulation): 0.3 µM | EC20 (concentration necessary for suppressing 20% of the expression level of MHC class I molecules) [1]: 234 nM | Inhibition rate (%) of swelling of the sole (BALB/c mice; administration period 7 days, 50 mg/kg/single administration): 37.0% | Inhibition rate (%) of swelling of the sole (BALB/c mice; administration period 7 days, 100 mg/kg/single administration): 49.5% | Inhibition rate (%) of swelling of the sole (BALB/c mice; administration period 8 days, 50 × 2 (50 mg/kg, twice a day)): 80.0% | Expression inhibition rate by test compound (%), CD40 (CD40; Analyte 1, 3 days): 10.8% | Expression inhibition rate by test compound (%), CD40 (CD40; Analyte 2, 3 days): −5.4% | Expression inhibition rate by test compound (%), CD40 (CD40; Analyte 3, 3 days): 12.9% | Expression inhibition rate by test compound (%), CD83 (CD83; Analyte 1, 3 days): 62.6% | Expression inhibition rate by test compound (%), CD83 (CD83; Analyte 2, 3 days): 88.6% | Expression inhibition rate by test compound (%), CD83 (CD83; Analyte 3, 3 days): 42.7%
